Measurements as given in patent US20190054103A1, “METHOD OF TREATMENT OF TP53 WILD-TYPE TUMORS WITH 2',2'-DIFLUORO-5-AZA-2'-DEOXYCYTIDINE OR PRODRUGS THEREOF” (priority 2016, published 2019).

Key:
[1] = test system: HL-60 (leukemia, TP null); settings: HL-60 nude mice
[2] = in vivo
[3] = test system: LoVo (colon cancer, TP WT); assay: Xenograft model, nude mice implanted with LoVo; settings: NUC041 treatment, 8 days following the end of treatment
[4] = Pharmacokinetics after SC administration of NUC041 in phospholipid gel depot to mice; settings: analyte in plasma following SC administration of NUC041 (100 mg/kg) to mice
[5] = test system: TP53 WT colon cancer cell line Ls174T; assay: CellTiter-Glo growth inhibition, Ls174T; format: cell-based; settings: 72-hour exposure, FIG. 1
Experimental: (§1) Two examples of additional comparisons are provided below for colon cancer cell lines (TP53 WT colon cancer cell line Ls174T and TP53 WT colon cancer cell line LoVo).
(§2) In these assays, two 96 well plates of each cell line were seeded with 5,000 cells per well in a total volume of […] per well and left incubating overnight. The following day, the cells were exposed to different concentrations of NUC013. At the end of a 72-hour exposure period, the plates were removed for CellTiter-Glo® assay. Luminescence was recorded on a Synergy 4.0.

[6] = test system: TP53 WT colon cancer cell line LoVo; assay: CellTiter-Glo growth inhibition, LoVo; format: cell-based; settings: 72-hour exposure, FIG. 2
Experimental: as §1, §2

HeLa cells = assay: Nucleotide concentrations in HeLa cell extracts by HPLC (RNR inhibition); format: cell-based; settings: 50 μM, 16 h incubation
Description: The more common approach is to synthesize a nucleoside diphosphate and then determine whether it inhibits RNR or p53R2. […] Nucleic Acids Research. […] The other approach is to expose cells in tissue culture to the drug and then attempt to determine whether deoxynucleotide synthesis is inhibited when compared to control cells. Measurement of deoxynucleotides may be done by radioimmunoassay or by HPLC. The disadvantage of a radioimmunoassay is that it can only measure a single deoxynucleotide triphosphate (dNTP) at a time and typically requires a tritiated nucleotide, but it is the preferred method for measuring dCTP [Piall E M, Aherne G W, Marks V. The quantitative determination of 2′-deoxycytidine-5′ triphosphate in cell extracts by radioimmunoassay. Anal Biochem. 1986; 154(1):276-281 incorporated herein by reference in its entirety]. On the other hand, HPLC can measure multiple nucleotides without requiring radiolabeling, but has been noted to quantitate poorly dC nucleotides, possibly as an artifact of an influx of dCTP from the medium [Bianchi V, Pontis E, Reichard P. Changes of deoxyribonucleoside triphosphate pools induced by hydroxyurea and their relation to DNA synthesis. J Biol Chem. 1986; 261(34): 16037-16042 incorporated herein by reference in its entirety]. This approach was used to determine RNR inhibition by NUC013.
Briefly, HeLa cells ([…]) were grown in the presence or absence of drug, in this case gemcitabine or NUC013. At the end of a 16 h incubation, the medium was aspirated, cells monolayers washed twice with PBS, and used for nucleotide extraction. The nucleotides were extracted from cell monolayers by the addition of ice-cold 80% acetonitrile (ACN) for 1 h. The extracts were centrifuged to remove cellular debris and loaded on a SAX column (100 mg, Supelco) pre-conditioned with methanol, water and ACN. Once the sample was completely effused, the cartridge was washed with 3 ml 80% ACN and 3 ml water and eluted with 1M KCl. The eluent was filtered through a 0.45 μm filter membrane (Roth) and analyzed by HPLC. Peak identification of the different nucleoside mono-, di-, and triphosphates, was made from their characteristic UV absorption spectra and retention times compared with those of a mixture of standards run immediately before cell extracts. The area of individual peaks was measured using ChemStation software (Agilent).

C[Si](C)(C)OC[C@H]1O[C@@H](n2cnc(N)nc2=O)C(F)(F)[C@@H]1O[Si](C)(C)C [NUC041, 4-amino-1-((2R,4R,5R)-3,3-difluoro-4-(trimethylsilyloxy)-5-((trimethylsilyloxy)methyl)tetrahydrofuran-2-yl)-1,3,5-triazin-2(1H)-one]
hazard ratio (HR) vs saline control ([1]; 31 mg/kg intravenously, oil in water emulsion): 0.51
pharmacokinetic advantage over NUC013 [2]: did not demonstrate a pharmacokinetic advantage over NUC013
tumor weights less than saline controls [3]: 26.6%
AUClast (area under the plasma concentration versus time curve from 0 to last quantifiable sampling time) [4]: 20.0 ng·h/mL

Nc1ncn([C@H]2C[C@H](O)[C@@H](CO)O2)c(=O)n1 [Decitabine, 4-amino-1-((2R,4S,5R)-4-hydroxy-5-(hydroxymethyl)tetrahydrofuran-2-yl)-1,3,5-triazin-2(1I)-one]
mice dead or moribund prior to the conclusion of the study ([1]; 5 mg/kg per day for three consecutive days a week for three weeks): Four of ten

4-amino-1-((2R,4R,5R)-3,3-difluoro-4- hydroxy-5- (hydroxymethyl)tetrahydrofuran-2- yl)pyrimidin-2(1I)-one hydrochloride [Gemcitabine, reference compound]
GI50 [5]: > 50 µM
GI50 [6]: > 50 µM
ADP (HeLa cells): 15,639
ATP (HeLa cells): 26,296
CTP (HeLa cells): 1,297
GTP (HeLa cells): 2,036
UTP (HeLa cells): 4,801
dATP, peak area, AU (HeLa cells): 0 AU
dGDP, peak area, AU (HeLa cells): 7.95 AU
dTDP, peak area, AU (HeLa cells): 43.4 AU
dUTP, peak area, AU (HeLa cells): 5.3 AU
